Assay results taken from patent US20250382256A1, “DICARBOXYLIC ACID DIESTERS” (DSM IP Assets B.V., priority 2018, published 2025).
Counter-ions that a name gives are not always drawn. Like-named read-outs stand apart in the source and are kept apart here.

Columns and labels:
[1] = system: rumen liquor; assay: In vitro test for methane production (modified Hohenheim Forage value Test, HFT); assay type: cell-based; conditions: read-out: Methane inhibition
Description: A modified version of the “Hohenheim Forage value Test (HFT)” was used for testing the effect of specific compounds on the rumen functions mimicked by this in-vitro system. Principle: Feed (i.e. a TMR) (300 mg) is given into a syringe with a composition of rumen liquor and an appropriate mixture of buffers (i.e. rumen-fluid buffer mix: 25 ml) and the substances to be tested in the concentrations as outlined in table 2 (the inhibitors to be tested are diluted in ethanol to reach the respective concentration of dry matter in 50 μl). The solution is incubated at 39° C. for 8 h. The quantity of produced gas is measured and put into a formula for conversion. After the incubation the composition of gas is measured with a GC. TMR (44% concentrate, 6% hay, 37% maize silage and 13% grass silage) is sieved to 1 mm and weighed exactly into the syringes. One run contains 4 repetitions, each with 16 syringes and comprises substrate controls, which display the gas production without the effect of the tested compounds, carrier controls, which display the gas production in the presence of the carrier (solvent) only (i.e. EtOH used to dissolve the test compounds), and test samples (in the carrier), which contain the test substances in varying concentrations as outlined in table 2. The components are mixed in a Woulff bottle in following order: • 711 ml water • 0.18 ml trace element solution • 355.5 ml buffer solution • 355.5 ml mass element solution The completed solution is warmed up to 39° C. followed by the addition of 1.83 ml sodium salt solution and the addition of reduction solution at 36° C. The rumen liquor (750 ml) is added, when the indicator turns colorless under continued agitation and CO2-gassing. The rumen-fluid-buffer-mix is added to the glass syringe prepared as outlined above containing the TMR and the active to be tested. The syringes are then incubated for 8 hours at 39° C. under gentle agitation. After 8 the volume of gas produced is measured, and the percentage of methane in the gas phase is determined by gas chromatography.

[2] = Vapor pressure of the purified diester; assay type: physicochemical; conditions: purified product

| SMILES | inhibition at 2.5 µM ([1]; 8 h) [%] | inhibition at 5 µM ([1]; 8 h) [%] | inhibition at 10 µM ([1]; 8 h) [%] | vapor pressure [2] [mbar] | inhibition at 2.5 µM ([1]; 2.5 μmol/l, 8 h at 39° C., TMR in rumen-fluid buffer mix, reduction versus substrate control) [%] | inhibition at 5 µM ([1]; 5 μmol/l, 8 h at 39° C., TMR in rumen-fluid buffer mix, reduction versus substrate control) [%] | inhibition at 10 µM ([1]; 10 μmol/l, 8 h at 39° C., TMR in rumen-fluid buffer mix, reduction versus substrate control) [%] |
| --- | --- | --- | --- | --- | --- | --- | --- |
| O=C(CC(=O)OCCCO[N+](=O)[O-])OCCCO[N+](=O)[O-] [(I-a), bis(3-(nitrooxy)propyl) malonate] | 72 | 97 | 99 | 0.00133 |  |  |  |
| O=C(/C=C/C(=O)OCCCO[N+](=O)[O-])OCCCO[N+](=O)[O-] [(I-b), bis(3-(nitrooxy)propyl) fumarate] |  | 96 | 99 | 0.00133 |  |  |  |
| O=C(CCC(=O)OCCCO[N+](=O)[O-])OCCCO[N+](=O)[O-] [(I-c), bis(3-(nitrooxy)propyl) succinate] |  |  | 99 | 0.00133 |  |  |  |
| O=[N+]([O-])OCCCO [Ref, 3-nitrooxypropanol, reference compound] |  |  |  |  | 32 | 86 | 99 |
